Experiments:
Ramos = assay: Tumor cell proliferation (MTS), Ramos; format: cell-based; conditions: Homo sapiens, 72 hours
Description: (§1) Measurement of in vivo cell proliferation:
(§2) Tumor cells were trypsinized and plated into 96-well plates at 3,000 per well and incubated in complete medium with 10% FBS for 24 hours. Compounds were added over a final concentration range of 100 μmol/L to 100 nmol/L in 0.1% DMSO and incubated for 72 hours in complete medium. The effects on proliferation were determined by addition of MTS reagent (Promega) according to the instruction, incubation for 2 hours at 37° C. in CO2 incubator, and record the absorbance at 490 nm using an ELISA plate reader.

Jurkat = assay: Tumor cell proliferation (MTS), Jurkat; format: cell-based; conditions: Homo sapiens, 72 hours
Description: as §1, §2

Flt3 = target: T1, Flt3 (Homo sapiens, UniProt P36888); assay: Flt3 kinase ELISA bioassay; format: biochemical; conditions: ELISA kinase assay, 200 μM ATP
T1 construct: purchased Cell Signaling
T1 sequence (P36888 27-993): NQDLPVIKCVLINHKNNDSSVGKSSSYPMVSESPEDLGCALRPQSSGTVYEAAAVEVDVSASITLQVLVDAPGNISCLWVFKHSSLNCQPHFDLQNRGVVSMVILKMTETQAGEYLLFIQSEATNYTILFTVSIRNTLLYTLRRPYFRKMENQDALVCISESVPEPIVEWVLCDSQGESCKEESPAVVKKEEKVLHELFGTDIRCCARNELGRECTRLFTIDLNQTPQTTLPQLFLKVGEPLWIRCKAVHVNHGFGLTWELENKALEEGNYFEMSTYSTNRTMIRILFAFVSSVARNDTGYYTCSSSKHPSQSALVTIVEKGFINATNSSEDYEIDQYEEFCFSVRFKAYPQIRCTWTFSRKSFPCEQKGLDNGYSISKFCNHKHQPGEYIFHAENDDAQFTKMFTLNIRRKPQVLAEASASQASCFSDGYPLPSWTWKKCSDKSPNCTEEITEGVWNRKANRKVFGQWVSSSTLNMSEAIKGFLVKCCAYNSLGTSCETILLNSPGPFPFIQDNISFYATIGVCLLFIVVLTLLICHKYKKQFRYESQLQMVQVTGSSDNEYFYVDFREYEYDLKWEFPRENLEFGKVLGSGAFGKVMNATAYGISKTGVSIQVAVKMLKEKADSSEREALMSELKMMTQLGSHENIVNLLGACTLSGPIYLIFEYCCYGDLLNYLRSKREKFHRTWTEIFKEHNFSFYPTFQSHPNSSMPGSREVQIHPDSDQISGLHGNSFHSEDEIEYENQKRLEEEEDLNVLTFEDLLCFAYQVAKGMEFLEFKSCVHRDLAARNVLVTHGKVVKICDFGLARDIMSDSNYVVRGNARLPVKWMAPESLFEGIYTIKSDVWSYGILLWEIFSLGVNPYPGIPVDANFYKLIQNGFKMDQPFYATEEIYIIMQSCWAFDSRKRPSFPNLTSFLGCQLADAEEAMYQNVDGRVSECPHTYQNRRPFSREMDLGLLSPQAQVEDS
Description: This assay is used to measure in vitro kinase activity of Flt3 in an ELISA assay.
• 1. Streptavidin coated, 96-well, white plate • 2. Phospho-Tyrosine Monoclonal Antibody (P-Tyr-100) (Cell Signaling) • 3. HRP-labeled anti-mouse IgG (Upstate) • 4. HTScan™ Tyrosine Kinase Buffer (4×) • 5. DTT (1000×. 1.25 M) • 6. ATP (10 mM) • 7. KDR (Tyr996) Biotinylated Peptide Substrate (Cell Signaling) • 8. Flt3 Kinase (recombinant, human) (Cell Signaling) • 9. Wash Buffer: 1× PBS, 0.05% Tween-20 (PBS/T) • 10. Bovine Serum Albumin (BSA) • 11. Stop Buffer: 50 mM EDTA pH 8 • 12. Enhanced chemiluminescence (ECL) (Amersham) Procedure for performing the assay in 96-well plate: • 1. Add 10 μl 10 mM ATP to 1.25 ml 6 μM substrate peptide. Dilute the mixture with dH20 to 2.5 ml to make 2× ATP/substrate cocktail ([ATP]=[…], [substrate]=3 μm). • 2. Immediately transfer enzyme from −80° C. to ice. Allow enzyme to thaw on ice. • 3. Microcentrifuge briefly at 4° C. to bring liquid to the bottom of the vial. Return immediately to ice. • 4. Add 10 μl of DTT (1.25 M) to 2.5 ml of 4× HTScan™ Tyrosine Kinase Buffer (240 mM HEPES pH 7.5, 20 mM MgCl2, 20 mM MnCl2, 12 μM Na3VO4) to make DTT/Kinase buffer. • 5. Transfer 1.25 ml of DTT/Kinase buffer to enzyme tube to make 4× reaction cocktail ([enzyme]=4 ng/μL in 4× reaction cocktail). • 6. Incubate 12.5 μl of the 4× reaction cocktail with 12.5 μl/well of prediluted compound of interest (usually around 10 μM) for 5 minutes at room temperature. • 7. Add 25 μl of 2× ATP/substrate cocktail to 25 μl/well preincubated reaction cocktail/compound. Final Assay Conditions for a 50 μl Reaction: • 60 mM HEPES pH 7.5 • 5 mM MgCl2 • 5 mM MnCl2 • 3 μM Na3VO4 • 1.25 mM DTT • […] • 1.5 μM peptide • 10 units Flt3 Kinase • 8. Incubate reaction plate at room temperature for 30 minutes. • 9. Add 50 μl/well Stop Buffer (50 mM EDTA, pH 8) to stop the reaction. • 10. Transfer 50 μl of each reaction and 50 μl dH2O/well to a 96-well streptavidincoated plate and incubate at room temperature for 60 minutes. • 11. Wash three times with 200 μl/well PBS/T • 12. Dilute primary antibody, Phospho-Tyrosine Monoclonal Antibody (P-Tyr-100), 1:1000 in PBS/T with 1% BSA. Add 100 μl/well of primary antibody. • 13. Incubate at room temperature for 60 minutes. • 14. Wash three times with 200 μl/well PBS/T • 15. Dilute HRP labeled anti-mouse IgG 1:500 in PBS/T with 1% BSA. Add 100 μl/well diluted antibody. • 16. Incubate at room temperature for 30 minutes. • 17. Wash five times with 200 μl/well PBS/T. • 18. Add 100 μl/well ECL Solution. • 19. Detect luminescence with appropriate Plate Reader.

A549 = assay: Tumor cell proliferation (MTS), A549; format: cell-based; conditions: Homo sapiens, A549, 72 hours
Description: as §1, §2

| Structure (SMILES) | GI50 (Ramos) | GI50 (Jurkat) | IC50 (Flt3) | GI50 (A549) |
| --- | --- | --- | --- | --- |
| Cc1[nH]c(/C=C2\C(=O)Nc3ccc(F)cc32)c(C)c1C(=O)NCCNc1ccc(C(=O)Nc2ccccc2N)cn1 [Example 3, (Z)-N-(2-aminophenyl)-6-(2-(2-((5-fluoro-2-oxoindolin-3-ylidene)methyl)-3,5-dimethyl-1H-pyrrole-4-carboxamido)ethylamino)nicotinamide] | > 60 µM | > 60 µM | 76 nM | > 60 µM |
| Cc1[nH]c(/C=N/N=C2\C(=O)Nc3ccc(F)cc32)c(C)c1C(=O)NCCNc1ccc(C(=O)Nc2ccccc2N)cn1 [Example 4, N-(2-aminophenyl)-6-(2-(2-(((5-fluoro-2-oxoindolin-3-ylidene)hydrazono)-methyl)-3,5-dimethyl-1H-pyrrole-4-carboxamido)ethylamino)nicotinamide] | > 60 µM | > 60 µM | 870 nM | > 60 µM |
| Cc1[nH]c(/C=C2\C(=O)Nc3ccc(F)cc32)c(C)c1C(=O)NCCCNc1ccc(C(=O)Nc2ccccc2N)cn1 [Example 6, (Z)-N-(2-aminophenyl)-6-(3-(2-((5-fluoro-2-oxoindolin-3-ylidene)methyl)-3,5-dimethyl-1H-pyrrole-4-carboxamido)propylamino)nicotinamide] | > 60 µM | > 60 µM | 132 nM | > 60 µM |
| Cc1[nH]c(/C=N/N=C2\C(=O)Nc3ccc(F)cc32)c(C)c1C(=O)NCCCNc1ccc(C(=O)Nc2ccccc2N)cn1 [Example 7, N-(2-aminophenyl)-6-(3-(2-(((5-fluoro-2-oxoindolin-3-ylidene)hydrazono)-methyl)-3,5-dimethyl-1H-pyrrole-4-carboxamido)propylamino)nicotinamide] | > 60 µM | > 60 µM | 451 nM | > 60 µM |
| Cc1[nH]c(/C=C2\C(=O)Nc3ccc(F)cc32)c(C)c1C(=O)NCCCCNc1ccc(C(=O)Nc2ccccc2N)cn1 [Example 9, (Z)-N-(2-aminophenyl)-6-(4-(2-((5-fluoro-2-oxoindolin-3-ylidene)methyl)-3,5-dimethyl-1H-pyrrole-4-carboxamido)butylamino)nicotinamide] | > 60 µM | > 60 µM | 25 nM | > 60 µM |
| Cc1[nH]c(/C=N/N=C2\C(=O)Nc3ccc(F)cc32)c(C)c1C(=O)NCCCCNc1ccc(C(=O)Nc2ccccc2N)cn1 [Example 10, N-(2-aminophenyl)-6-(4-(2-(((5-fluoro-2-oxoindolin-3-ylidene)hydrazono)-methyl)-3,5-dimethyl-1H-pyrrole-4-carboxamido)butylamino)nicotinamide] | > 60 µM | > 60 µM | > 1000 nM | > 60 µM |
| Cc1[nH]c(/C=C2\C(=O)Nc3ccc(F)cc32)c(C)c1C(=O)NCCNc1ccc(C(=O)Nc2ccc(F)cc2N)cn1 [Example 13, (Z)-N-(2-amino-4-fluorophenyl)-6-(2-(2-((5-fluoro-2-oxoindolin-3-ylidene)-methyl)-3,5-dimethyl-1H-pyrrole-4-carboxamido)ethylamino)nicotinamide] | > 60 µM | > 60 µM | 63 nM | > 60 µM |
| Cc1[nH]c(/C=N/N=C2\C(=O)Nc3ccc(F)cc32)c(C)c1C(=O)NCCNc1ccc(C(=O)Nc2ccc(F)cc2N)cn1 [Example 14, N-(2-amino-4-fluorophenyl)-6-(2-(2-(((5-fluoro-2-oxoindolin-3-ylidene)-hydrazono)methyl)-3,5-dimethyl-1H-pyrrole-4-carboxamido)ethylamino)nicotinamide] | > 60 µM | > 60 µM | 432 nM | > 60 µM |
| Cc1[nH]c(/C=C2\C(=O)Nc3ccc(F)cc32)c(C)c1C(=O)NCCCNc1ccc(C(=O)Nc2ccc(F)cc2N)cn1 [Example 16, (Z)-N-(2-amino-4-fluorophenyl)-6-(3-(2-((5-fluoro-2-oxoindolin-3-ylidene)-methyl)-3,5-dimethyl-1H-pyrrole-4-carboxamido)propylamino)nicotinamide] | > 60 µM | > 60 µM | 623 nM | > 60 µM |
| Cc1[nH]c(/C=N/N=C2\C(=O)Nc3ccc(F)cc32)c(C)c1C(=O)NCCCNc1ccc(C(=O)Nc2ccc(F)cc2N)cn1 [Example 17, N-(2-amino-4-fluorophenyl)-6-(3-(2-(((5-fluoro-2-oxoindolin-3-ylidene)-hydrazono)methyl)-3,5-dimethyl-1H-pyrrole-4-carboxamido)propylamino)nicotinamide] | > 60 µM | > 60 µM | > 1000 nM | > 60 µM |
| Cc1[nH]c(/C=C2\C(=O)Nc3ccc(F)cc32)c(C)c1C(=O)NCCCCNc1ccc(C(=O)Nc2ccc(F)cc2N)cn1 [Example 19, (Z)-N-(2-amino-4-fluorophenyl)-6-(4-(2-((5-fluoro-2-oxoindolin-3-ylidene)-methyl)-3,5-dimethyl-1H-pyrrole-4-carboxamido)butylamino)nicotinamide] | > 60 µM | > 60 µM | 21 nM | > 60 µM |
| Cc1[nH]c(/C=N/N=C2\C(=O)Nc3ccc(F)cc32)c(C)c1C(=O)NCCCCNc1ccc(C(=O)Nc2ccc(F)cc2N)cn1 [Example 20, N-(2-amino-4-fluorophenyl)-6-(4-(2-(((5-fluoro-2-oxoindolin-3-ylidene)-hydrazono)methyl)-3,5-dimethyl-1H-pyrrole-4-carboxamido)butylamino)nicotinamide] | > 60 µM | > 60 µM | > 1000 nM | > 60 µM |
